Source: patent US20220325233A1, “MEDIUM SUPPLEMENT FOR HIGH-YIELD INDUSTRIAL CULTURE OF FASTIDIOUS ANAEROBES AND MEDIUM COMPOSITION CONTAINING THE SAME” (priority 2020, published 2022)

Tested on: Akkermansia muciniphila EB-AMDK19 (KCTC 13761BP) strain
Test: Growth (change in optical density, ΔOD600) in anaerobic batch culture
Type: cell-based
Details: for Growth (ΔOD600): after 72 hours of culture; for Growth (AOD 600): after 48 hours of culture
Protocol: In addition, in the following examples, the concentration of anaerobes (amount of biomass produced) was determined by measuring the optical density of the culture medium at 600 nm using a spectrophotometer during the culture period. ΔOD was calculated as the difference in absorbance between the initial stage of culture and after 48 hours (or 72 hours) of culture.
Based on soy casein digest broth (tryptic soy broth (TSB)), the optimal combination of substrates and components that can replace mucin was investigated.
Next, changes in the optical density (OD600) of the strain were measured, and the results of the measurement are shown in Table 3 below.
In addition, to find the optimal concentration of cobalamin, the strain was cultured while changing the concentrations of cobalamin, and then changes in the optical density (OD600) of the strain were measured.
In order to find the essential components necessary for high-concentration culture of anaerobes and an optimal combination thereof, the Akkermansia muciniphila strain was cultured in media having various combinations of components under the same conditions.
An experiment was performed in the same manner as in Example 1 above, except that the medium shown in Table 2 above were used and the kind of strain cultured was changed as shown in Table 7 below. Specifically, each Akkermansia muciniphila strain was inoculated into the medium at a ratio of 0.1% v/v, and then cultured at 37° C. under anaerobic conditions (90% N2, 5% CO2, and 5% H2) for 24 to 48 hours.

[1] = single vitamin added at 0.1 mg/L
[2] = single vitamin added at 0.2 mg/L

Molecule: Cc1ncc(CO)c(CO)c1O [Medium B6]
- Growth (ΔOD600) (single vitamin added at 0.5 mg/L): 0.337

Molecule: Nc1ccc(C(=O)O)cc1 [Medium B10]
- Growth (ΔOD600) [1]: 0.335

Molecule: O=C(O)CCCC[C@@H]1SC[C@@H]2NC(=O)N[C@@H]21 [Medium B7]
- Growth (ΔOD600) (single vitamin added at 0.02 mg/L): 0.344

Molecule: Cc1ncc(C[n+]2csc(CCO)c2C)c(N)n1 [Medium B1]
- Growth (ΔOD600) [2]: 0.352

Molecule: Cc1cc2nc3c(=O)[nH]c(=O)nc-3n(C[C@H](O)[C@H](O)[C@H](O)CO)c2cc1C [Medium B2]
- Growth (ΔOD600) [1]: 0.334

Molecule: Nc1nc(=O)c2nc(CNc3ccc(C(=O)N[C@@H](CCC(=O)O)C(=O)O)cc3)cnc2[nH]1 [Medium B9]
- Growth (ΔOD600) (single vitamin added at 0.05 mg/L): 0.348

Molecule: O=C(O)c1cccnc1 [Medium B3]
- Growth (ΔOD600) [2]: 0.342

Molecule: CC(C)(CO)[C@@H](O)C(=O)NCCC(=O)O [Medium B5]
- Growth (ΔOD600) [1]: 0.347

Molecule: Cyanocobalamin
- Growth (AOD 600) (Cyanocobalamin 0.05 mg/L): 0.563 ± 0.012
- Growth (AOD 600) (Cyanocobalamin 0.1 mg/L): 0.576 ± 0.014
- Growth (AOD 600) (Cyanocobalamin 0.2 mg/L): 0.577 ± 0.008
- Growth (AOD 600) (Cyanocobalamin 0.5 mg/L): 0.575 ± 0.011
- Growth (AOD 600) (Cyanocobalamin 1 mg/L): 0.581 ± 0.003
- Growth (AOD 600) (Cyanocobalamin 5 mg/L): 0.571 ± 0.007
- optimal concentration in the medium (from Table 5 concentration series): 0.1 mg/L
- Growth (ΔOD600) [1]: 0.575
